Assay results from patent US6335031B1, “TTS containing an antioxidant” (priority 1998, dated 2002).

Assays:
[1] = tolerability and absorption of Compound A from transdermal patches; type: in vivo
Method: The transdermal devices of the invention in general have, for example an effective contact area of pharmaceutical composition on the skin of from about 1 to about 80 square centimeters, preferably about 10 square centimeters, and are intended to be applied at intervals of about once every 1 to 7 days, preferably 1-3 days. […] Compound A may, for example be administered at a dose of 8 mg in a patch of ca. 10 cm^2, once every day. The patch may be applied, for example on the abdomen, thigh, behind an ear, or on a shoulder or upper arm.
(§1) Higher dosages are possible, for example 4.5 mg twice daily and even 6 mg twice daily. Tolerability is seen to be even better for the transdermal device, wherein 24 mg were absorbed in 24 hours.

[2] = tolerability of Compound A given orally; type: in vivo; conditions: oral, initial dose 1.5 mg twice a day, stepped up to 3 mg twice daily in week 2
Method: as §1

[3] = degradation testing of Compound A and of the prior-art transdermal composition; type: physicochemical; conditions: particularly in the presence of oxygen; prior-art composition in occlusive polymer matrix and air-tight packaging

Question: Which “tolerability of transdermal device compared with oral” value ([1]; transdermal device, 24 mg absorbed in 24 hours) does the source give for `CCN(C)C(=O)Oc1cccc([C@H](C)N(C)C)c1` [Compound A] here?
Answer: even better

Question: And the amount absorbed ([1]; transdermal device, in 24 hours)?
Answer: 24 mg

Question: What about the tolerability ([1]; transdermal, 36 mg free base in up to 80 cm^2 of patches) of the same molecule?
Answer: well tolerated

Question: And the amount absorbed ([1]; transdermal, patches up to 80 cm^2 containing 36 mg compound A)?
Answer: 12 mg

Question: What about the tolerability [2] of the same molecule?
Answer: well tolerated

Question: What about the susceptibility to degradation [3] of the same molecule?
Answer: susceptible to degradation
